# Assay results taken from patent US20250289807A1, “Inhibitors of ROCK2” (Graviton Bioscience BV, priority 2022, published 2025).
# Experiments:
# ROCK1 = ROCK1 (Homo sapiens (Human), UniProt Q13464); test: ADP-Glo kinase assay, ROCK1; assay type: biochemical; conditions: 10 μM ATP, 170 μM S6K substrate, 120 min
# Procedure: (§1) ADP-Glo kinase assay (Promega). The ADP-Glo™ Kinase Assay is a luminescent ADP detection assay that allows measurement of kinase activity based on the amount of ADP produced during a kinase reaction. The kinase reaction is performed in the presence of ATP, S6K substrate ([…]) and the ROCK kinase in the appropriate Kinase Reaction Buffer (1×). Upon termination of the reaction, the unconsumed ATP is depleted by addition of ADP-Glo™ Reagent. Next, Kinase Detection Reagent is added to convert ADP to ATP and allow the newly synthesized ATP to be measured using a luciferase/luciferin reaction. The luminescence is proportional to the produced ADP and consequently to the kinase activity. The ADP-Glo™ Kinase Assay was performed in a 384 well plate format as follows.
# (§2) Kinase Detection Reagent Preparation: The Kinase Detection Buffer was thawed at room temperature (RT). If a precipitate was present, the buffer was incubated at 37° C. with constant swirling for 15 minutes to dissolve the precipitate or the precipitate was removed from the buffer by carefully pipetting the supernatant from the bottle. After equilibrating both the Kinase Detection Buffer and Kinase Detection Substrate to room temperature, the entire volume of Kinase Detection Buffer was transferred into the bottle containing Kinase Detection Substrate to reconstitute the lyophilized substrate, followed by gentile mixing to obtain a homogeneous solution.
# (§3) Kinase Reaction Buffer Preparation: Kinase reaction buffer was prepared freshly before each experiment.
# (§4) ADP-Glo Reagents Preparation. Three mixes were prepared on ice before running the assay: • Mix 1—containing ROCK1 or ROCK2 in Kinase Reaction Buffer (1×) • Mix 2—containing S6K peptide in Kinase Reaction Buffer (1×) • Mix 3—containing ATP in Kinase Reaction Buffer (1×)
# (§5) The ratios of reagent volumes in the assay were 1:1:2 of kinase reaction to ADP-Glo™ Reagent to Kinase Detection Reagent. For 384-well plates, volumes were: 5 μl of kinase reaction, 5 μl of ADP-Glo™ Reagent and 10 μl of Kinase Detection Reagent.
# (§6) Generating a standard curve for conversion of ATP to ADP. To estimate the amount of ADP produced in the kinase reaction, a standard curve that represents the luminescence corresponding to the conversion of ATP to ADP was prepared based on the ATP concentration used in the kinase reaction. These conversion curves represent the amounts of ATP and ADP available in a reaction at the specified conversion percentage ranging from 100% conversion to 0% conversion. The standard samples used to generate an ATP-to-ADP conversion curve are created by combining the appropriate volumes of ATP and ADP stock solutions.
# (§7) Each plate contained a positive control (1 μM Comp. A for ROCK2 and 1 μM RKI-1447 for ROCK1); a vehicle control (1% DMSO); a blank control (kinase reaction buffer (1×)); a low control (substrate and ATP, without kinase); and an autophosphorylation control (kinase and ATP, without substrate). Test and reference compounds were diluted in 100% DMSO to obtain 10 mM stock solutions. Each compound was tested in 8-serial dilutions in duplicate. The final concentration of DMSO in the reaction was 1% (up to 50 nL).
# (§8) 5 μl/well Kinase Reaction Buffer (1×) was dispensed to blank control wells. 2 μl/well Kinase Reaction Buffer (1×) was dispensed to control without protein (low control) and without substrate (autophosphorylation) wells. The plate was sealed with adhesive film followed by a short spin (1 min, 1000 rpm).
# (§9) 2 μl/well kinase (2.5×) solution was dispensed into relevant wells of the assay plate. The plate was sealed with adhesive film followed by a short spin (1 min, 1000 rpm).
# (§10) The plate was sealed with adhesive film followed by a short spin (1 min, 1000 rpm).
# (§11) 1 μl/well ATP (5×) solution was dispensed into relevant wells of the assay plate. The final volume of reaction was […]. The plate was sealed with adhesive film followed by a short spin (1 min, 1000 rpm).
# ROCK2 = ROCK2 (Homo sapiens (Human), UniProt O75116); test: ADP-Glo kinase assay, ROCK2; assay type: biochemical; conditions: 40 μM ATP, 170 μM S6K substrate, 120 min
# ROCK2, sequence (O75116 whole entry): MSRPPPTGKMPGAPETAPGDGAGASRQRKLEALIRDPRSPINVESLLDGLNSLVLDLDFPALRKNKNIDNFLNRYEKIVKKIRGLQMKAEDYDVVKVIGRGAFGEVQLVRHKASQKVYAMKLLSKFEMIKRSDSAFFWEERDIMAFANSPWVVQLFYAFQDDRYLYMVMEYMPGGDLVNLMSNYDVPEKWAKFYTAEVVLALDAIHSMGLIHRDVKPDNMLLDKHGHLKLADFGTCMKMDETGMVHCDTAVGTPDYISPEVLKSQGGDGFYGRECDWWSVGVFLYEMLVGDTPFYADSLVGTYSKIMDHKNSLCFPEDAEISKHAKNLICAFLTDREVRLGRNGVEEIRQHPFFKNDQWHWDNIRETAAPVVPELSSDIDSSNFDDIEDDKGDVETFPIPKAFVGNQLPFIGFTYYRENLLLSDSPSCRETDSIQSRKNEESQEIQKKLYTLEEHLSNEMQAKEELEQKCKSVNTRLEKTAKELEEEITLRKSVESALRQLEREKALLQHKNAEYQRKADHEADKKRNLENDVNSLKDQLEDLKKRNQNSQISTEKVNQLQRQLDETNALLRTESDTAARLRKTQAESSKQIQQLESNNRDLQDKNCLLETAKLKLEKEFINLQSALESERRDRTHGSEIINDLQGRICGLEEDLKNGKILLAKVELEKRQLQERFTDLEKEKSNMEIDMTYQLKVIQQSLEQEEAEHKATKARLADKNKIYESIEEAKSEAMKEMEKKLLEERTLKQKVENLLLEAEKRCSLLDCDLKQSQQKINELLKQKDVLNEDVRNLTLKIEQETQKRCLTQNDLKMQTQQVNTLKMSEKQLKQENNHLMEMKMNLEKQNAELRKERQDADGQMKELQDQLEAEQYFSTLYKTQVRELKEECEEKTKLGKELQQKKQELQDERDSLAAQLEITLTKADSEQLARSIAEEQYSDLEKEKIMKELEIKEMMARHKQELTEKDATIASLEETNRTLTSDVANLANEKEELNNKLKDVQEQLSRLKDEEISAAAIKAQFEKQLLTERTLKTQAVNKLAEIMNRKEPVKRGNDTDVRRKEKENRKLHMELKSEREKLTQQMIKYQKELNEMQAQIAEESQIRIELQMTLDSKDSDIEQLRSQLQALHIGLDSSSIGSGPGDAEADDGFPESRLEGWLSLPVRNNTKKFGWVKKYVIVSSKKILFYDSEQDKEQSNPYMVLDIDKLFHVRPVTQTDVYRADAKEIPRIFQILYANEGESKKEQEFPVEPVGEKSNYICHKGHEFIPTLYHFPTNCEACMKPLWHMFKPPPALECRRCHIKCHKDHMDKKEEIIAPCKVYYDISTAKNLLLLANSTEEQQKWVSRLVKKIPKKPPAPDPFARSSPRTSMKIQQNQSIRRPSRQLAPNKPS
# Procedure: as §1, §2, §3, §4, §5, §6, §7, §8, §9, §10, §11
# Kinetic solubility = assay type: physicochemical; conditions: kinetic from dmso stock
# [1] = system: IL-17 secretion in human CD4+ T cells; test: IL-17 secretion in Th17-skewed human CD4+ T cells (ELISA); assay type: cell-based; conditions: anti-CD3/28 mAbs, IL-1β (50 ng/mL) and TGF-β (5 ng/mL), 48 hours
# Procedure: In this study, peripheral blood CD4^+ T cells were treated with the indicated doses of the ROCK2 inhibitors and then stimulated by anti-CD3/28 mAbs, IL-1β (50 ng/mL) and TGF-β (5 ng/mL) for 48 hours. The supernatants were analyzed for IL-17 by ELISA. One representative of three different experiments is shown.
# [2] = system: STAT3 phosphorylation in human CD4+ T cells; test: STAT3 phosphorylation in Th17-skewed human CD4+ T cells (Western Blot); assay type: cell-based; conditions: stimulated 2 hours, FIG. 3
# Procedure: (§12) In these studies, peripheral blood CD4^+ T cells were treated with indicated doses of inhibitors and then stimulated by anti-CD3/28 mAbs, IL-1β (50 ng/mL) and TGF-β (5 ng/mL) for 2 hours. The cell lysates were prepared and analyzed by Western Blot. One representative of three different experiments is shown.
# [3] = system: pCofilin in human CD4+ T cells; test: pCofilin in human CD4+ T cells (Western Blot); assay type: cell-based; conditions: stimulated 2 hours, FIG. 4
# Procedure: as §12
# [4] = system: human lung fibroblast MRC-5 cells; test: TGF-β-induced pro-fibrogenic gene expression in MRC-5 fibroblasts (RT-PCR); assay type: cell-based; conditions: MRC-5, TGF-β1 2.5 ng/mL, 48 hours, FIG. 5
# Procedure: (§13) ROCKs are activated by small GTPase Rho in response to a variety of profibrotic signals and regulate cytoskeletal dynamics, activation of different down-stream intracellular targets and expression of key profibrotic genes, such as fibronectin, smooth muscle actin (α-SMA) and collagen 3 (Col3A1).
# (§14) In these studies, human lung fibroblast MRC-5 cells were acquired from American Type Culture Collection (ATCC) and cultured in MEM supplemented with 10% fetal bovine serum. The cells were seeded in 24-well cell culture plates at 50,000/mL/well. On the following day, the cells were starved in MEM containing 0.5% FBS for overnight. […] Cellular mRNA was isolated and mRNA expression of indicated genes (fibronectin, αSMA and col3A) was analyzed by RT-PCR (FIG. 5). Secreted pro-collagen 1a (Col1A1) in supernatants was measured by ELISA (FIG. 6).
# [5] = system: human lung fibroblast MRC-5 cells; test: Col1A protein secretion in MRC-5 supernatants (ELISA); assay type: cell-based; conditions: MRC-5, TGF-β1 2.5 ng/mL, 48 hours, FIG. 6
# Procedure: as §13, §14
# [6] = system: Human subcutaneous adipocytes; test: Adipogenesis in primary human adipocytes (Oil Red staining); assay type: cell-based; conditions: adipogenic cocktail, 10 days, Oil Red absorbance, FIG. 7
# Procedure: Adipogenesis is a multi-step complex process, progressing from precursor stem cells to adipocytes that synthesize and store fat. […] ROCKs have been implicated in regulation of adipocyte differentiation, however the isoform-specific contribution to adipogenesis and other metabolic pathways is not well characterized. […] In this study, Human subcutaneous adipocytes were grown to confluence before induction to differentiation by adipogenic cocktail (0.1 μM dexamethasone, 1 μM insulin, 200 μM indomethacin, 250 μM isobutyl methylxanthine (IBMX)) in the presence of indicated concentrations of Ex. 1 or Ex. 2 for 10 days. Differentiated cells were stained by Oil Red which was extracted by isopropanol and measured by absorbance at 492 nm.
# [7] = system: mouse 3T3-L1 pre-adipocytes; conditions: cited from earlier work
# [8] = system: human adipose-derived stem cells; conditions: cited from earlier work
# ROCK1, sequence (Q13464 whole entry): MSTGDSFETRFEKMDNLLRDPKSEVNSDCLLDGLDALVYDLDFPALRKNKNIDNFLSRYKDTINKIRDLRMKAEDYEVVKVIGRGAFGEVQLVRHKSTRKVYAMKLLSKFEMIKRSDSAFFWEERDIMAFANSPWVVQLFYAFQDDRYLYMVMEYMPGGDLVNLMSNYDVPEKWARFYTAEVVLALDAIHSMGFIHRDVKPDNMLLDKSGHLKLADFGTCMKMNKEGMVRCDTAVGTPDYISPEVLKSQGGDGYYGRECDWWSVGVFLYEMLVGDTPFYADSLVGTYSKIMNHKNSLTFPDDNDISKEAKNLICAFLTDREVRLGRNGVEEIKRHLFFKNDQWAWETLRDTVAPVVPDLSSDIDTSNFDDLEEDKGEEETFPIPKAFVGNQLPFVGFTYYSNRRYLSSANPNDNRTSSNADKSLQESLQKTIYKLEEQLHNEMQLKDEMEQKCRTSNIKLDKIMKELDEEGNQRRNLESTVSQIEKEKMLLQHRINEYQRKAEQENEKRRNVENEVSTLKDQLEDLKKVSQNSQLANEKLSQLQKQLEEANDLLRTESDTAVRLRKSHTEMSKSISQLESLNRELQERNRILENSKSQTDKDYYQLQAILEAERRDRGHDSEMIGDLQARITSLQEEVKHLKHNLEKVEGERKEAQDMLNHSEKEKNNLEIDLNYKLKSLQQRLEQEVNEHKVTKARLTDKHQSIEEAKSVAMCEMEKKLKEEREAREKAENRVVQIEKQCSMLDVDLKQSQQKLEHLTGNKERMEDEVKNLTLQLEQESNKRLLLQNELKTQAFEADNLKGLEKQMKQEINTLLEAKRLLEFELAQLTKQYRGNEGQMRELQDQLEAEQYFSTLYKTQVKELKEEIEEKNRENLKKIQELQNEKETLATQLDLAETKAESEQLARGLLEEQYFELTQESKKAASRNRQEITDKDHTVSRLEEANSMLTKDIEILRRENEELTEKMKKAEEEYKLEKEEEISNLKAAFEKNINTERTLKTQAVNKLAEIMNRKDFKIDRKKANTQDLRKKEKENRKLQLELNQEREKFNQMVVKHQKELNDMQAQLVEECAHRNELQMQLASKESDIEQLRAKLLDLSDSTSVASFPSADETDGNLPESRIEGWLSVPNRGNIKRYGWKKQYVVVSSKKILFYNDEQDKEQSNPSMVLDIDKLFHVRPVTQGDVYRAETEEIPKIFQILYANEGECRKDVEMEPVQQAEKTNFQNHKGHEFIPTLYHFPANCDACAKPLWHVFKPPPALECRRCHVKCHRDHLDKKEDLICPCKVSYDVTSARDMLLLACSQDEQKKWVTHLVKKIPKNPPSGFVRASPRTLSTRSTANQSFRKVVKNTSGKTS
SMILES,IC50 (ROCK1) [nM],IC50 (ROCK2) [nM],other results
C[C@H](NC(=O)c1cc2ccc(-c3nccc(Nc4ccc(-c5cnc[nH]5)cc4)n3)cc2n1C)C(F)(F)F [Example 9],746,,
"Cn1c(C(=O)N2CC(F)(F)C2)cc2ccc(-c3nccc(Nc4ccc(-c5c[nH]nn5)cc4)n3)cc21 [Example 2, 2-[2-(3,3-difluoroazetidine-1-carbonyl)-1-methyl-1H-indol-6-yl]-N-[4-(1H-1,2,3-triazol-4-yl)phenyl]pyrimidin-4-amine]",> 50000,,solubility kinetic (Kinetic solubility): 2.69 µg/mL; EC50 [1]: 764 nM; STAT3 phosphorylation induced by Th17-skewing activation [2]: down-regulate STAT3 phosphorylation; pCofilin [3]: down-regulate pCofilin; TGF-β-induced Col3A1 gene expression [4]: down-regulate dose-dependently; TGF-β-induced fibronectin gene expression [4]: down-regulate dose-dependently; TGF-β-induced α-SMA gene expression [4]: down-regulate dose-dependently; Col1A protein production in supernatants [5]: down-regulate dose-dependently; adipogenesis [6]: down-regulate adipogenesis in a dose-dependent manner
Cn1c(C(=O)N2CCC(F)(F)C2)cc2ccc(-c3nccc(Nc4ccc(-c5cnc[nH]5)cc4)n3)cc21 [Example 7],2100,,
C[C@H](NC(=O)c1cc2ccc(-c3nccc(Nc4ccc(-c5cnc[nH]5)cc4)n3)cc2n1CCN(C)C)C(F)(F)F [Example 8],10700,,
CN(C)C(=O)Cn1c(C(=O)N2CC(F)(F)C2)cc2ccc(-c3nccc(Nc4ccc(-c5cnc[nH]5)cc4)n3)cc21 [Example 4],> 50000,,
"Cn1c(C(=O)N2CC(F)(F)C2)cc2ccc(-c3nccc(Nc4ccc(-c5cnc[nH]5)cc4)n3)cc21 [Example 1, 2-[2-(3,3-difluoroazetidine-1-carbonyl)-1-methyl-1H-indol-6-yl]-N-[4-(1H-imidazol-5-yl)phenyl]pyrimidin-4-amine]",> 50000,,solubility kinetic (Kinetic solubility): 2.2 µg/mL; EC50 [1]: 838 nM; STAT3 phosphorylation induced by Th17-skewing activation [2]: down-regulate STAT3 phosphorylation; pCofilin [3]: down-regulate pCofilin; TGF-β-induced Col3A1 gene expression [4]: down-regulate dose-dependently; TGF-β-induced fibronectin gene expression [4]: down-regulate dose-dependently; TGF-β-induced α-SMA gene expression [4]: down-regulate dose-dependently; Col1A protein production in supernatants [5]: down-regulate dose-dependently; adipogenesis [6]: down-regulate adipogenesis in a dose-dependent manner
"Cn1c(C(=O)N2CC(F)(F)C2)cc2ccc(-c3nccc(Nc4ccc(-c5cn[nH]c5)cc4)n3)cc21 [Comp. A, reference compound]",3210,2.29,solubility kinetic (Kinetic solubility): < 1.9 µg/mL
CC(C)NC(=O)COc1cccc(-c2nc(Nc3ccc4[nH]ncc4c3)c3ccccc3n2)c1 [KD025],,,adipocyte differentiation [7]: down-regulated adipocyte differentiation; adipocyte differentiation [8]: down-regulated adipocyte differentiation
"O=C(c1cc2c(s1)CN(c1nccc(Nc3ccc(-c4c[nH]nn4)cc3)n1)CC2)N1CC(F)(F)C1 [Example 3′, 2-[2-(3,3-difluoroazetidine-1-carbonyl)-4H,5H,6H,7H-thieno[2,3-c]pyridin-6-yl]-N-[4-(1H-1,2,3-triazol-4-yl)phenyl]pyrimidin-4-amine]",2730,961,

# More lines, main results first:
IC50 (ROCK1) [nM],IC50 (ROCK2) [nM],SMILES,other results
25200,,O=C(c1nc2ccc(-c3nccc(Nc4ccc(-c5cn[nH]n5)cc4)n3)cc2[nH]1)N1CC(F)(F)C1 [Example 22],
1220,207,O=C(c1cc2c(s1)CN(c1nccc(Nc3ccc(-c4cnn[nH]4)cc3)n1)CC2)N1CC2C(C1)C2(F)F (centres unmarked) [Example 24],
23200,,CN(C)CCn1c(C(=O)N2CCC(F)(F)C2)cc2ccc(-c3nccc(Nc4ccc(-c5cn[nH]n5)cc4)n3)cc21 [Example 18],
2010,10000,O=C(c1cc2ccc(-c3nccc(Nc4ccc(-c5cn[nH]n5)cc4)n3)cc2o1)N1CC(F)(F)C1 [Example 19],
2280,10000,Cn1c(C(=O)N2CCCC2)cc2ccc(-c3nccc(Nc4ccc(-c5cnc[nH]5)cc4)n3)cc21 [Example 12],
8910,334,O=C(c1cc2c(s1)CN(c1nccc(Nc3ccc(-c4cnc[nH]4)cc3)n1)CC2)N1CC2C(C1)C2(F)F (centres unmarked) [Example 23],
4290,10000,CN(C)CCn1c(C(=O)N2CCC(F)(F)C2)cc2ccc(-c3nccc(Nc4ccc(-c5cnc[nH]5)cc4)n3)cc21 [Example 13],
6850,,O=C(c1cc2c(s1)CN(c1nccc(Nc3ccc(-c4cnc[nH]4)cc3)n1)CC2)N1CCC(F)(F)C1 [Example 25],
792,,Cn1c(C(=O)N2CCCC2)cc2ccc(-c3nccc(Nc4ccc(-c5cn[nH]n5)cc4)n3)cc21 [Example 16],
4000,,C[C@H](NC(=O)c1cc2ccc(-c3nccc(Nc4ccc(-c5cnc[nH]5)cc4)n3)cc2n1CC1COC1)C(F)(F)F [Example 10],
281,,CN(C)CCn1c(C(=O)N2CC(F)(F)C2)cc2ccc(-c3nccc(Nc4ccc(-c5cn[nH]n5)cc4)n3)cc21 [Example 15],
